Measured values published in patent publication US9089526B2, “Pharmaceutical product and analysis model for hormone replacement therapy for women and prevention of some cancers and uterine myomas” (Universidad de Chile, priority 2009, dated 2015).

Legend:
rat uterus [1] = experiment: Estrogenic (agonist) responses in the uterus of prepubertal female rats, substance alone; type: in vivo; conditions: s.c.
Protocol: (§1) Prepubertal female rats were treated s.c. with the vehicle (C) (0.3 mL 1:9 ethanol saline), or a phytoestrogenic preparation, followed after one hour by estradiol-17β (E) Merck (0.33 mg/kg b.wt.), or its vehicle. Among the phytoestrogenic compounds used, genistein (G) Sigma (0.5 mg/kg b.wt.), two different concentrations of soybean ethanol extracts (S): 0.06 (Sd) and 0.364 (Sc) mg genistin/kg b.wt., and extracts, decoctions or extract sub-fractions of various plant species. Genistein quantification was based in the indirect valoration of genistein following 2M HCl hydrolysis and genistein quantification by HPLC (45, 46). […] Uteri were excised under ether anesthesia and histologically processed for eosinophil quantification and morphometric analysis of different parameters of estrogen action (22, 34). The following parameters were quantified in the uterus: total uterine eosinophilia (6), percentage of eosinophils according to the distribution in different uterine histological layers and to their degree of degranulation (10, 14); deep endometrial and superficial endometrial edema (47); luminal epithelial, glandular epithelial (34) and myometrial (47) cell hypertrophy, luminal epithelial RNA content (34), and number of mitotic figures for each uterine cell-type.
(§2) Statistics: According to previous studies (14) using the Tukey test of additivity (50), data on some parameters of estrogen stimulation needs to be submitted to logarithmic transformation or to square or cubic root transformation to normalize distribution. Accordingly, the transformations were performed on some of the parameters of estrogen stimulation investigated (14). Transformed and non-transformed data were subjected to further statistical analysis.
(§3) Since multiple comparisons were performed between the different experimental conditions, transformed and non-transformed data (all parameters except eosinophil degranulation and eosinophil distribution between uterine tissue layers) were subjected to the least significant difference a posteriori (LSD) test. The common variance needed for this test was estimated from a one-way unbalanced analysis of variance (ANOVA).
(§4) In uterine eosinophil degranulation and distribution studies, the χ^2 statistic was used to evaluate differences between the proportions.

[2] = test system: human MDAMB-231 mammary cancer cells; experiment: In vitro growth (sulforhodamine B) assay, MDAMB-231 cells; type: cell-based; conditions: 72 h
Protocol: (§5) Cell lines. The experimental cell cultures were obtained from American Type Culture Collection (Rockville, Md., USA). MCF-7 and MDA-MB231 cells (estrogen receptor positive and negative respectively breast cancer cells) were grown in Dulbecco's modified Eagle's medium (DMEM) containing 10% FCS, 100 U/ml penicillin, 100 μg/ml streptomycin and 1 mM glutamine. Cells were seeded into 96 well microtiter plates in 100 μl at plating density of 3×10^3 cells/well. After 24 h incubation at 37° C. under a humidified 5% carbon dioxide to allow cell attachment, the cells were washed with phenol red-free and the medium was changed to phenol red-free DMEM supplemented with 4% dextran-charcoal-stripped foetal calf serum (DCFCS). Then the cells were treated with different concentrations of drugs and incubated for 72 h under the same conditions. Stock solution of compounds was prepared in ethanol and the final concentration of this solvent was kept constant at 1%. Control cultures received 1% ethanol alone.
(§6) In vitro growth inhibition assay. The sulforhodamine B assay was used according to the method of Skehan et al. 1990 (48) with some modifications (49). […] Protein-bound stain was solubilized with 100 μl of 10 mM unbuffered Tris base, and the cell density was determined using a […] (wavelength 540 nm). […]

[3] = test system: human MCF-7 mammary cancer cells; experiment: In vitro growth (sulforhodamine B) assay, MCF-7 cells; type: cell-based; conditions: 72 h
Protocol: as §5, §6

rat uterus [4] = experiment: Modification of estradiol-induced uterine responses in prepubertal female rats, substance given 1 h before estradiol-17β; type: in vivo; conditions: for Estrogen-induced endometrial edema: pretreatment 1 h before estradiol 0.33 mg/kg s.c.
Protocol: as §1, §2, §3, §4

[5] = substance alone, absence of estradiol
[6] = pretreatment 1 h before estradiol, compared to estradiol alone
[7] = pretreatment 1 h before estradiol, mitoses

O=c1c(-c2ccc(O)cc2)coc2cc(O)cc(O)c12 [G, genistein]
Edema in deep endometrial stroma (rat uterus [1]; 6 h (FIG. 4)): not by G or S | Proportion of uterine eosinophils located in the mesometrium and in the endometrium with myometrium (rat uterus [1]; 6 h (FIG. 6)): all the eosinophils were in the mesometrium | Endometrial luminal epithelial cell hypertrophy (rat uterus [1]; 24 h (FIG. 2)): response similar to E | Endometrial luminal epithelial cell RNA content (rat uterus [1]; 24 h (FIG. 3)): response similar to E | Cell proliferation (number of mitotic figures) in myometrium (rat uterus [1]; 24 h (FIG. 11)): not by G, Sd or Sc | Myometrial hypertrophy (rat uterus [1]; uteri excised 24 h after treatment (FIG. 1)): response similar to E | Cell proliferation of cultured MDAMB-231 cells [2, 5]: slightly inhibited | Cell proliferation of cultured MDAMB-231 cells ([2]; substance plus estradiol): in association with estradiol the inhibitory effect is stronger than that of genistein alone | Cell proliferation of cultured MCF-7 cells [3, 5]: increased | Cell proliferation of cultured MCF-7 cells ([3]; substance plus estradiol): cell proliferation induced by genistein plus estradiol is higher than that of estradiol alone | Estrogen-induced endometrial edema (rat uterus [4]; 6 h of treatment): antagonizes | Estrogen-induced endometrial edema (rat uterus [4]; 24 h of treatment): not at 24 h | Estrogen-induced uterine eosinophilia (rat uterus [4]; pretreatment 1 h before estradiol, 6 and 24 h considered together): mainly at 6 h of treatment | Estrogen-induced eosinophilia in the endometrial layer only (rat uterus [4]; pretreatment 1 h before estradiol, 6 or 24 h): decrease in eosinophils under estrogen treatment is stronger | Degranulation of uterine eosinophils in estrogen-treated rats (rat uterus [4]; [6]): decreases the degranulation | Proportion of uterine eosinophils by location (endometrium/myometrium vs mesometrium) in estrogen-treated rats (rat uterus [4]; [6]): decrease in the proportion of eosinophils located in endometrium with myometrium | Estrogen-induced cell proliferation in endometrial stroma (rat uterus [4]; [7]): almost completely block | Estrogen-induced cell proliferation in myometrium (rat uterus [4]; [7]): almost completely block | Estrogen-induced cell proliferation in uterine luminal epithelium (rat uterus [4]; [7]): almost completely block
